Laboratory results taken from paper PMC8719450 (Xenobiotica; the fate of foreign compounds in biological …, 2021).
Read-outs that look alike come from different tables or passages of the source. Blank lines part the entries; values can stand above or below the compound they belong to.

Tests used:
CYP2A6 [1] = target: T1, CYP2A6 (Homo sapiens, UniProt P11509); conditions: 20 min, 60 μM
T1 sequence (P11509 1-494): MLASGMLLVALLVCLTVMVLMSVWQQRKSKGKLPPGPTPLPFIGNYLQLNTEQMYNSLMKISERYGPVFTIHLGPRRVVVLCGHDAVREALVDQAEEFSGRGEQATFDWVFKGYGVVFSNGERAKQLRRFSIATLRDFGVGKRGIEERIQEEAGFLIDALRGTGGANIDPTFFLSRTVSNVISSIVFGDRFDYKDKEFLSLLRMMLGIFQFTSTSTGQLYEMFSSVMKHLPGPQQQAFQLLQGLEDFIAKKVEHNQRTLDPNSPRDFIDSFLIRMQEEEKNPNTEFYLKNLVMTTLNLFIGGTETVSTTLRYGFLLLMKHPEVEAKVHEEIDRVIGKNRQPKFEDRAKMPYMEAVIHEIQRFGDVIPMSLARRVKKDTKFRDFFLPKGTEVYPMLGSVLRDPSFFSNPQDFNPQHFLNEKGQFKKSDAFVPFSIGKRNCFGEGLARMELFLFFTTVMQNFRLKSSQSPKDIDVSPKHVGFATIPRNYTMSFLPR

[2] = type: in vitro ADME; conditions: human, human liver microsomes (sample HH54), probe flavone (60 µM), formation of diOHFM4 (3´4´diOHF)
[3] = test system: sample HH47 liver microsomes; type: in vitro ADME, human; conditions: substrate flavone 60 μM, inhibitor 10 μM
CYP3A4 = CYP3A4 (Homo sapiens, UniProt P08684); test: Oxidation of flavonoids by reconstituted recombinant P450, LC-MS/MS; type: in vitro ADME
[4] = guinea pigs, oral 30 mg of flavone, ref Das and Griffiths (1966), cited from earlier work
[5] = test system: liver microsomes of human sample HH2; test: Oxidation of flavonoids by human liver microsomes, sample HH2; type: in vitro ADME
[6] = rats, oral or intraperitoneal administration; ref Das and Griffiths (1966); cited from earlier work
CYP2C9 = CYP2C9 (Homo sapiens, UniProt P11712); test: Oxidation of flavonoids by reconstituted recombinant P450, LC-MS/MS; type: in vitro ADME
CYP2A6 [7] = target: T1, CYP2A6; test: as above
CYP2B6 = target: T2, CYP2B6 (Homo sapiens, UniProt P20813); type: in vitro ADME
T2 sequence (P20813 1-491): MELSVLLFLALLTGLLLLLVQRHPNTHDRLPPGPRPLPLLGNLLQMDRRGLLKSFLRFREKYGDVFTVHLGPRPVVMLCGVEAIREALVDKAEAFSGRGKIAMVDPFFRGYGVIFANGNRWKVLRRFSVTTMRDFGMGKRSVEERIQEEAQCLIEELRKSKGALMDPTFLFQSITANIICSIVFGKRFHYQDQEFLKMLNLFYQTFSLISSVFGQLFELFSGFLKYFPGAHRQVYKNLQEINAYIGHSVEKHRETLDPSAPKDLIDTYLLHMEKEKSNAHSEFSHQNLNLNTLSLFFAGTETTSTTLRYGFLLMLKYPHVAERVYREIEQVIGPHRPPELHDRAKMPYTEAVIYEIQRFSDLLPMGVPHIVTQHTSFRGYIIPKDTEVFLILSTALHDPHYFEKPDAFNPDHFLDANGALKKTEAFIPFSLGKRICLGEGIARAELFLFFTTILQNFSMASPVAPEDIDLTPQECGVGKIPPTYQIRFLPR

CYP3A4, sequence (P08684 whole entry): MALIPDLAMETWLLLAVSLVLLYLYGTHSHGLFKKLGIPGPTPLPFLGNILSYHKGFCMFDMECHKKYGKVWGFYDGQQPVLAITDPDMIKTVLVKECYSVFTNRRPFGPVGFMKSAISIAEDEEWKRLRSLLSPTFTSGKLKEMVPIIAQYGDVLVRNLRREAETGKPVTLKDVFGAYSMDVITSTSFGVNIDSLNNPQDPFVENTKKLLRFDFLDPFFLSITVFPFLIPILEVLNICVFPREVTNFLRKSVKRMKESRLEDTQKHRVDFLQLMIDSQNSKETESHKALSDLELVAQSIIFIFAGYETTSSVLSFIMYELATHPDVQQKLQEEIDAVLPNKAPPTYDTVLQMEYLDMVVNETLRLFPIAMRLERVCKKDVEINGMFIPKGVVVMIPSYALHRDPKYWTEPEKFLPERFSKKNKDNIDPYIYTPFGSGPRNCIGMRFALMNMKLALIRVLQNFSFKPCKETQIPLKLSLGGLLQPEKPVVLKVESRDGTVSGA
CYP2C9, sequence (P11712 whole entry): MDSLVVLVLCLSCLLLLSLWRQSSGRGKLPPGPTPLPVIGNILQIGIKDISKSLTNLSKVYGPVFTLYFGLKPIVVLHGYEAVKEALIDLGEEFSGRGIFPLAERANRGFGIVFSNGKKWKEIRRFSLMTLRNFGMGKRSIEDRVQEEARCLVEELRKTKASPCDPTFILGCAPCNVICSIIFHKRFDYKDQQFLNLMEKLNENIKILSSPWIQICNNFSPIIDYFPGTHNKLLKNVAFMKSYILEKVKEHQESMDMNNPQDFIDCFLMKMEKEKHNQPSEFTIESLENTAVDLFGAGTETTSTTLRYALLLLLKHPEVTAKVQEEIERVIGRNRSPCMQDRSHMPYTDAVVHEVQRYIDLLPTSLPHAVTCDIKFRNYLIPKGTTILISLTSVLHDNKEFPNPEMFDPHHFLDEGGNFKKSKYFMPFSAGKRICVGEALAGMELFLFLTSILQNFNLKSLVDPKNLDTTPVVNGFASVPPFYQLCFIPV

rate of O-demethylation to form M2 (4´OHF) (CYP2A6 [1]): 0.029 min⁻¹
rate of formation of M1 (3´4´diOHF) (CYP2A6 [1]): 0.0004 min^1
Structure (SMILES): COc1ccc(-c2cc(=O)c3ccccc3o2)cc1 [4´MeF, 4´-methoxyflavone]

inhibition at 20 min [2]: 65%
Structure (SMILES): O=c1cc(-c2ccccc2)oc2c1ccc1ccccc12 [ANF, α-naphthoflavone]
inhibition of formation of OHFM5, OHFM7, 6OHF, and OHFM12 [3]: inhibited

inhibition at 20 min [2]: 75%
Structure (SMILES): O=c1ccc2ccccc2o1 [coumarin]
inhibition of formation of OHFM6 and OHFM9 [3]: strongly inhibited

activity in oxidizing flavone (CYP3A4): not very active
production of OHFM6, OHFM9, and diOHFM4 [5]: very little
activity in oxidizing flavone (CYP2C9): not very active
activity in oxidizing to OHFM6 (4´OHF) and OHFM9 (3´OHF) (CYP2A6 [7]): highly active
activity in oxidizing flavone (CYP2B6): not very active
Structure (SMILES): O=c1cc(-c2ccccc2)oc2ccccc12 [flavone]
urinary excretion of 4´OHF ([4]; first day): 622 µg
urinary excretion of 4´OHF ([4]; fourth day): 0 µg
urinary excretion of 4´OHF ([4]; second day): 309 µg
urinary excretion of 4´OHF ([4]; third day): 15 µg
3´4´diOHF found in urine [6]: small amounts
